No end group written: not given here.
System: Fas/FAP-1 binding
Assay: In vitro inhibition assay of Fas/FAP-1 binding (GST-Fas, 35S-labeled FAP-1)
Conditions: 15-mer peptide 1-1000 μM; human PAMP 1 mM; peptides acetylated
Experimental: 3A. Inhibition assay of Fas/FAP-1 binding using the C-terminal 15 amino acids of Fas. GST-Fas fusion protein (191-355) was used for in vitro binding assay (lane 1, 3-10). GST-Fas fusion protein (191-320) (lane 2) and 1 mM human PAMP (N-terminal 20 amino acids of proadrenomedullin, M. W. 2460.9) (lane 3) were used as negative controls. The concentrations of the C-terminal 15 amino acids added were 1 (lane 4), 3 (lane 5), 10 (lane 6), 30 (lane 7), 100 (lane 8), 300 (lane 9), and 1000 μM (lane 10).
HFAP-10 cDNA (Sato, et al. 1995) subcloned into the Bluescript vector pSK-II (Stratagene) was in vitro-translated from an internal methionine codon in the presence of ^35S-L-methionine using a coupled in vitro transcription/translation system (Promega, TNT lysate) and T7 RNA polymerase. […] After washing vigorously 4 times in the same buffer, associated proteins were recovered with the glutathione-Sepharose beads by centrifugation, eluted into boiling Laemmli buffer, and analyzed by SDS-PAGE and fluorography.
In vitro-translated [^35S ]HFAP-1 was purified with a NAP-5 column (Pharmacia) and incubated with 3 μM of GST-fusion proteins for 16 hours at 4° C. After washing 4 times in the binding buffer, radioactivity incorporation was determined in a β counter. […]

Chain of Fas/FAP-1 binding (Q12923 1361-1456 limits assumed): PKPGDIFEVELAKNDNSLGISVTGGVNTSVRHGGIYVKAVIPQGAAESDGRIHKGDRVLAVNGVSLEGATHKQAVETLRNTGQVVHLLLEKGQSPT

Substance | inhibitory effect on binding of in vitro-translated FAP-1 to GST-Fas
synthetic 15 amino acids of Fas: synthetic peptide of the C-terminal 15 amino acids of Fas (Ac-DSENSNFRNEIQSLV) | dramatically reduced and dependent on the concentration
human PAMP peptide: N-terminal 20 amino acids of proadrenomedullin, negative control (ARLDVASEFRKKWNKWALSR; ends and bridges not checked; UniProt P35318 22-41, looked up) | no effect

— patent publication US6743630B2, “Method of preparing a protein array based on biochemical protein-protein interaction” (The Trustees of Columbia University in the City of New York, priority 2002, dated 2004)
